Usually EC50 stands for the concentration that produces a half-maximal response.

For this assay, the system named is ELAM (E-selectin) expression in endothelial cells. Nature of the assay: E-selectin (ELAM) cell inflammation assay. The assay is classed as cell-based. Conditions: LPS and IL-1β stimulation, read-out: reduction of expression of ELAM, EC50. Here is the method: Endothelial-Leukocyte Adhesion Molecule (ELAM), also known as E-selectin, is expressed on the surface of endothelial cells. In this assay, lipopolysaccharide (LPS) and IL-1β are used to stimulate the expression of ELAM; test agents are tested for their abilities to reduce this expression, in accordance with studies showing that reduction of leukocyte adhesion to endothelial cell surface is associated with decreased cellular damage (e.g., Takada, M., Et al., Transplantation 64: 1520-25, 1997; Steinberg, J. B., et al., J. Heart Lung Trans. 13:306-313, 1994).
Endothelial cells may be selected from any of a number of sources and cultured according to methods known in the art; including, for example, coronary artery endothelial cells, human brain microvascular endothelial cells (HBMEC; Hess, D.C., et al., Neurosci. Left. 213(1): 37-40, 1996), or lung endothelial cells. Cells are conveniently cultured in 96-well plates. Cells are stimulated by adding a solution to each well containing 10 μg/ml LPS and 100 pg/ml IL-1β for 6 hours in the presence of test agent (specific concentrations and time may be adjusted depending on the cell type). Treatment buffer is removed and replaced with pre-warmed Fixing Solution® (100 μl/well) for 25 minutes at room temperature. Cells are then washed 3×, then incubated with Blocking Buffer (PBS+2% FBS) for 25 minutes at room temperature. Blocking Buffer containing Monoclonal E-Selectin Antibody (1:750, Sigma Catalog #S-9555) is added to each well. Plates are sealed and stored at 4° overnight. Plates are washed 4× with 160 μL Blocking Buffer per well. Second Antibody-HRP diluted 1:5000 in Blocking Buffer is then added (100 μL/well), and plates are incubated at room temperature (protected from light) for two hours. Plates are then washed 4× with Blocking Buffer before addition of 100 μL of ABTS Substrate solution at room temperature (Zymed, Catalog #00-2024). Wells are allowed to develop for 35 minutes, before measurement at 402 nm in a Fluoroskan® Reader with shake program for 10 seconds. Positive results are recorded as a decrease in ELAM concentration in tested wells, as compared to control wells.

Molecules are shown by their SMILES. Bounds are passed on as bounds.

In the case of `CCOC(=O)C1(C[S+]([O-])Cc2ccco2)OC(=O)C(O)=C1S(=O)(=O)Cc1ccco1` (stereo not drawn) [2-(Furan-2-ylmethanesulfinylmethyl)-3-(furan-2-ylmethanesulfonyl)-4-hydroxy-5-oxo-2,5-dihydro-furan-2-carboxylic acid ethyl ester], the 50% effective concentration (EC50) was ≤ 30 µM.
With `CCOC(=O)C1OC(=O)C(O)=C1Sc1nc2ccccc2[nH]1` (stereo not drawn) [3-(1H-Benzoimidazol-2-ylsulfanyl)-4-hydroxy-5-oxo-2,5-dihydro-furan-2-carboxylic acid ethyl ester] the figure was ≤ 30 µM.
`CCOC(=O)C1(CSc2ccccc2Cl)OC(=O)C(O)=C1Sc1ccccc1Cl` (stereo not drawn) [3-(2-Chloro-phenylsulfanyl)-2-(2-chloro-phenylsulfanylmethyl)-4-hydroxy-5-oxo-2,5-dihydro-furan-2-carboxylic acid ethyl ester]: the EC50 was ≤ 30 µM.
To `CN(C)CCSCC1(C(=O)O)OC(=O)C(O)=C1SCCN(C)C` (stereo not drawn) [3-(2-Dimethylamino-ethylsulfanyl)-2-(2-dimethylamino-ethylsulfanylmethyl)-4-hydroxy-5-oxo-2,5-dihydro-furan-2-carboxylic acid] belongs ≤ 30 µM; to `CCOC(=O)C1(CSc2nc3cc(Cl)c(Cl)cc3[nH]2)OC(=O)C(O)=C1Sc1nc2cc(Cl)c(Cl)cc2[nH]1` (stereo not drawn) [3-(5,6-Dichloro-1H-benzoimidazol-2-ylsulfanyl)-2-(5,6-dichloro-1H-benzoimidazol-2-ylsulfanylmethyl)-4-hydroxy-5-oxo-2,5-dihydro-furan-2-carboxylic acid ethyl ester], ≤ 30 µM; to `CCOC(=O)C1(CSc2nc3cc(Cl)ccc3s2)OC(=O)C(O)=C1Sc1nc2cc(Cl)ccc2s1` (stereo not drawn) [3-(5-Chloro-benzothiazol-2-ylsulfanyl)-2-(5-chloro-benzothiazol-2-ylsulfanylmethyl)-4-hydroxy-5-oxo-2,5-dihydro-furan-2-carboxylic acid ethyl ester], ≤ 30 µM.
To `O=C1OC(CSc2nc3ccccc3s2)(C(=O)O)C(Sc2nc3ccccc3s2)=C1O` (stereo not drawn) [3-(Benzothiazol-2-ylsulfanyl)-2-(benzothiazol-2-ylsulfanylmethyl)-4-hydroxy-5-oxo-2,5-dihydro-furan-2-carboxylic acid] belongs ≤ 30 µM; to `CCCCCCSCC1(C(=O)OCC)OC(=O)C(O)=C1SCCCCCC` (stereo not drawn) [3-Hexylsulfanyl-2-hexylsulfanylmethyl-4-hydroxy-5-oxo-2,5-dihydro-furan-2-carboxylic acid ethyl ester], ≤ 30 µM; to `O=C1NC(=O)C2(OC(=O)C(O)=C2Sc2nc3ccccc3[nH]2)C(=O)N1` [4-(1H-Benzoimidazol-2-ylsulfanyl)-3-hydroxy-1-oxa-7,9-diaza-spiro[4,5]dec-3-ene-2,6,8,10-tetraone], ≤ 30 µM.
With `O=C1OC(CO)(CSc2nc3cc(S(=O)(=O)O)ccc3[nH]2)C(Sc2nc3cc(S(=O)(=O)O)ccc3[nH]2)=C1O` (stereo not drawn) [4-(5-sulfo-1H-benzoimidazol-2-ylsulfanyl)-5-(5-sulfo-1H-benzoimidazol-2-ylsulfanylmethyl)-3-hydroxy-5-hydroxymethyl-5H-furan-2-one] the figure was ≤ 30 µM; with `CCOC(=O)C1(CSCc2ccco2)OC(=O)C(OC(C)=O)=C1SCc1ccco1` (stereo not drawn) [4-Acetoxy-3-(furan-2-ylmethylsulfanyl)-2-(furan-2-ylmethylsulfanylmethyl)-5-oxo-2,5-dihydro-furan-2-carboxylic acid ethyl ester], ≤ 30 µM; with `CCOC(=O)C1(CSCc2ccccc2)OC(=O)C(OC(C)=O)=C1SCc1ccccc1` (stereo not drawn) [4-Acetoxy-3-benzylsulfanyl-2-benzylsulfanylmethyl-5-oxo-2,5-dihydro-furan-2-carboxylic acid ethyl ester], ≤ 30 µM.
Take `CCOC(=O)C1(CSc2nc3ccccc3n2CC)OC(=O)C(OCC)=C1Sc1nc2ccccc2n1CC` (stereo not drawn) [4-Ethoxy-3-(1-ethyl-1H-benzoimidazol-2-ylsulfanyl)-2-(1-ethyl-1H-benzoimidazol-2-ylsulfanylmethyl)-5-oxo-2,5-dihydro-furan-2-carboxylic acid ethyl ester]: the EC50 is ≤ 30 µM.
To `Cc1ccc2[nH]c(SC3=C(O)C(=O)OC3C(=O)OC3CC(C)CCC3C(C)C)nc2c1` (stereo not drawn) [4-Hydroxy-3-(5-methyl-1H-benzoimidazol-2-ylsulfanyl)-5-oxo-2,5-dihydro-furan-2-carboxylic acid 2-isopropyl-5-methyl-cyclohexyl ester] belongs ≤ 30 µM; to `CCOC(=O)C1(CSc2ccc3ccccc3c2)OC(=O)C(O)=C1Sc1ccc2ccccc2c1` (stereo not drawn) [4-Hydroxy-3-(naphthalen-2-ylsulfanyl)-2-(naphthalen-2-ylsulfanylmethyl)-5-oxo-2,5-dihydro-furan-2-carboxylic acid ethyl ester], ≤ 30 µM; to `CCOC(=O)C1(CSc2nnnn2-c2ccccc2)OC(=O)C(O)=C1Sc1nnnn1-c1ccccc1` (stereo not drawn) [4-Hydroxy-5-oxo-3-(1-phenyl-1H-tetrazol-5-ylsulfanyl)-2-(1-phenyl-1H-tetrazol-5-ylsulfanylmethyl)-2,5-dihydro-furan-2-carboxylic acid ethyl ester], ≤ 30 µM.
With `CCOC(=O)C1(CSCCS(=O)(=O)O)OC(=O)C(O)=C1SCCS(=O)(=O)O` (stereo not drawn) [4-Hydroxy-5-oxo-3-(2-sulfo-ethylsulfanyl)-2-(2-sulfo-ethylsulfanylmethyl)-2,5-dihydro-furan-2-carboxylic acid ethyl ester] the figure was ≤ 30 µM.
To `CCOC(=O)C1(CSc2ccnc3cc(C(F)(F)F)ccc23)OC(=O)C(O)=C1Sc1ccnc2cc(C(F)(F)F)ccc12` (stereo not drawn) [4-Hydroxy-5-oxo-3-(7-trifluoromethyl-quinolin-4-ylsulfanyl)-2-(7-trifluoromethyl-quinolin-4-ylsulfanylmethyl)-2,5-dihydro-furan-2-carboxylic acid ethyl ester] belongs ≤ 30 µM.
For the molecule `CCOC(=O)C1(CSC(=S)N2CCCC2)OC(=O)C(O)=C1SC(=S)N1CCCC1` (stereo not drawn) [4-Hydroxy-5-oxo-3-(pyrrolidine-1-carbothioylsulfanyl)-2-(pyrrolidine-1-carbothioylsulfanylmethyl)-2,5-dihydro-furan-2-carboxylic acid ethyl ester], the EC50 was ≤ 30 µM.
With `CN(C)CC(=O)OCC1(CSc2nc3ccccc3[nH]2)OC(=O)C(O)=C1Sc1nc2ccccc2[nH]1` (stereo not drawn) [Dimethylamino-acetic acid 3-(1H-benzoimidazol-2-ylsulfanyl)-2-(1H-benzoimidazol-2-ylsulfanylmethyl)-4-hydroxy-5-oxo-2,5-dihydro-furan-2-ylmethyl ester] the figure was ≤ 30 µM; with `CCOC(=O)[C@]1(CSCC(NC(=O)CCC(N)C(=O)O)C(=O)NCC(=O)O)OC(=O)C(O)=C1SCC(NC(=O)CCC(N)C(=O)O)C(=O)NCC(=O)O` (stereo partly drawn) [R-3-[2-(4-Amino-4-carboxy-butyrylamino)-2-(carboxymethyl-carbamoyl)-ethylsulfanyl]-2-[2-(4-amino-4-carboxy-butyrylamino)-2-(carboxymethyl-carbamoyl)ethylsulfanylmethyl]-4-hydroxy-5-oxo-2,5-dihydro-furan-2-carboxylic acid ethyl ester], ≤ 30 µM.

Source of the values: patent US7985771B2, “Furanone derivatives” (Monsanto Technology LLC, priority 2002, dated 2011).
